Measured values: patent publication US7566712B2, “Biaryl piperazinyl-pyridine analogues” (Neurogen Corporation, priority 2003, dated 2009)

biological target: T1, human capsaicin receptor (Homo sapiens, UniProt Q8NER1); assay: Calcium mobilization assay, determination of antagonist activity (Example 6); assay type: cell-based; details: Table II; IC50 determined as described in Example 6
T1 construct: pBK-CMV expression construct encoding the full length human capsaicin receptor; expressed in transfected cells
T1 sequence (Q8NER1 whole entry): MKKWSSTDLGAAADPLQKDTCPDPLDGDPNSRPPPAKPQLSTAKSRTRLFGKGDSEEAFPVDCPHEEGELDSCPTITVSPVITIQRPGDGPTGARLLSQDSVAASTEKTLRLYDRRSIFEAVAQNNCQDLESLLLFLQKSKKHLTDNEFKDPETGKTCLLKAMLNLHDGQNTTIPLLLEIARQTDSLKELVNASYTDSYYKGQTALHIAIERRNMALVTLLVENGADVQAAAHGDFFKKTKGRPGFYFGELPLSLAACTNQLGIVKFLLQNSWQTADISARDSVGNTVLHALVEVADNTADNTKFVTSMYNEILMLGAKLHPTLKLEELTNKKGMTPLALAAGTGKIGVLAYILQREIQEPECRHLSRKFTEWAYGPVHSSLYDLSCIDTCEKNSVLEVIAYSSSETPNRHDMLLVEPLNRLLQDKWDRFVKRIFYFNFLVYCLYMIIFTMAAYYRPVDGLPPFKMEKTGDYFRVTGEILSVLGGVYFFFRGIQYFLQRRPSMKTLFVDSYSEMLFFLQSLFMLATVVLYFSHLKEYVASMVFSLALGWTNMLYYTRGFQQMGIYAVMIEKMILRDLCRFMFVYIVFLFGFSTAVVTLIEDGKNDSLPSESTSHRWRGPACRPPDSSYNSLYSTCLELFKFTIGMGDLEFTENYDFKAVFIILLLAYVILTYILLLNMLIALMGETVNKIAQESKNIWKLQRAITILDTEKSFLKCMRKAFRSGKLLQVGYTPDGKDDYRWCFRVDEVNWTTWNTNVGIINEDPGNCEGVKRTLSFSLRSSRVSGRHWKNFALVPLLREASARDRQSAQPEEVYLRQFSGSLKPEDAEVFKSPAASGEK
In short: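 HEK293 clonal lines stably expressing full-length human capsaicin receptor, loaded with Fluo-3 AM in KRH buffer pH 7.4, 1–2 h at 37 °C. Compounds (1–5 μM final) preincubated 0.5–6 h at room temperature, then capsaicin at its EC50 added. FLIPR/Fluoroskan calcium signal; IC50 as 50% decrease of capsaicin response.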

| Compound | IC50 [nM] |
| --- | --- |
| Cc1ccc(-c2cc(N3CCN(c4ncccc4C(F)(F)F)C[C@H]3C)nc(N3CCOCC3)n2)cc1F [Example 495, 4-(4-(3-fluoro-4-methylphenyl)-6-{(2R)-2-methyl-4-[3-(trifluoromethyl)pyridin-2-yl]piperazin-1-yl}pyrimidin-2-yl)morpholine] | ≤ 1000 |
| Cc1ccc(-c2cc(N3CCN(c4ncccc4C#N)C[C@H]3C)nc(N3CCOCC3)n2)cc1C [Example 506, 2-{(3R)-4-[6-(3,4-dimethylphenyl)-2-morpholin-4-ylpyrimidin-4-yl]-3-methylpiperazin-1-yl}nicotinonitrile] | ≤ 1000 |
| CCc1cccc(-c2cc(N3CCN(c4ncccc4C(F)(F)F)C[C@H]3C)nc(N3CCOCC3)n2)c1 [Example 516, 4-(4-(3-ethylphenyl)-6-{(2R)-2-methyl-4-[3-(trifluoromethyl)pyridin-2-yl]piperazin-1-yl}pyrimidin-2-yl)morpholine] | ≤ 1000 |
| COc1ccc(C(C)C)cc1-c1nc(N2CCOCC2)nc(N2CCN(c3ccccn3)CC2)n1 [Example 430, 2-(5-isopropyl-2-methoxyphenyl)-4-morpholin-4-yl-6-(4-pyridin-2-ylpiperazin-1-yl)-1,3,5-triazine] | ≤ 1000 |

same assay, conditions: Table II; IC50 determined as described in Example 6 (antagonist activity, calcium mobilization)

| Compound | IC50 [nM] |
| --- | --- |
| C[C@H]1CN(c2nccnc2Cl)CCN1c1cc(-c2ccc(F)c(Cl)c2)nc(Cl)n1 [Example 971, 2-chloro-4-(3-chloro-4-fluorophenyl)-6-[(2S)-4-(3-chloropyrazin-2-yl)-2-methylpiperazin-1-yl]pyrimidine] | ≤ 1000 |
| C[C@@H]1CN(c2ncccc2Cl)CCN1c1cc(-c2ccc(F)c(Cl)c2)nc(N2CCOC[C@@H]2C)n1 [Example 1000, (3S)-4-{4-(3-ohloro-4-fluorophenyl)-6-[(2R)-4-(3-chloropyridin-2-yl)-2-methylpiperazin-1-yl]pyrimidin-2-yl}-3-methylmorpholine] | ≤ 1000 |
| CC1CCCN1c1nc(-c2ccc(F)c(Cl)c2)cc(N2CCN(c3ncc(Br)cn3)CC2)n1 (stereo not shown) [Example 1002, 4-[4-(5-bromopyrimidin-2-yl)piperazin-1-yl]-6-(3-chloro-4-fluorophenyl)-2-(2-methylpyrrolidin-1-yl)pyrimidine] | ≤ 1000 |

same assay, conditions: Table II; determined as described in Example 6 (antagonist activity); "*" = 1 micromolar or less

| Compound | IC50 [nM] |
| --- | --- |
| CC1=NCCN1c1nc(-c2ccc(F)c(Cl)c2)cc(N2CCN(c3ncccc3C(F)(F)F)CC2)n1 [Example 801, 4-(3-chloro-4-fluorophenyl)-2-(2-methyl-4,5-dihydro-1H-imidazol-1-yl)-6-{4-[3-(trifluoromethyl)pyridin-2-yl]piperazin-1-yl}pyrimidine] | ≤ 1000 |
| CC(=O)c1nc(-c2ccc(F)c(F)c2)cc(N2CCN(c3ncccc3C(F)(F)F)CC2)n1 [Example 862, 1-(4-(3,4-difluorophenyl)-6-{4-[3-(trifluoromethyl)pyridin-2-yl]piperazin-1-yl}pyrimidin-2-yl)ethanone] | ≤ 1000 |
| OC1CN(c2nc(-c3ccc(F)c(Cl)c3)cc(N3CCN(c4ncccc4C(F)(F)F)CC3)n2)C1 [Example 774, 1-(4-(3-chloro-4-fluorophenyl)-6-{4-[3-(trifluoromethyl)pyridin-2-yl]piperazin-1-yl}pyrimidin-2-yl)azetidin-3-ol] | ≤ 1000 |
| C[C@H]1CN(c2nccnc2Cl)CCN1c1cc(-c2ccc(F)c(F)c2)nc(N2CCOCC2)n1 (stereo in doubt) [Example 939, 4-[4-[4-(3-chloropyrazin-2-yl)-2-methylpiperazin-1-yl]-6-(3,4-difluorophenyl)pyrimidin-2-yl]morpholine] | ≤ 1000 |
| CC1CCCN1c1nc(-c2ccc(F)c(Cl)c2)cc(N2CCN(c3ncc(Cl)cc3Cl)C[C@H]2C)n1 (stereo in doubt) [Example 954, 4-(3-chloro-4-fluorophenyl)-6-[4-(3,5-dichloropyridin-2-yl)-2-methylpiperazin-1-yl]-2-(2-methylpyrrolidin-1-yl)pyrimidine] | ≤ 1000 |
| Cc1ccc(-c2cc(N3CCN(c4ncccc4Cl)C[C@H]3C)nc(N3CCCC3C)n2)cc1C (stereo partly drawn) [Example 808, 4-[(2R)-4-(3-chloropyridin-2-yl)-2-methylpiperazin-1-yl]-6-(3,4-dimethylphenyl)-2-(2-methylpyrrolidin-1-yl)pyrimidine] | ≤ 1000 |
| CC1CCCN1c1nc(-c2ccc(F)c(F)c2)cc(N2CCN(c3ncccc3C(F)(F)F)C[C@H]2C)n1 (stereo partly drawn) [Example 792, 4-(3,4-difluorophenyl)-2-(2-methylpyrrolidin-1-yl)-6-{(2R)-2-methyl-4-[3-(trifluoromethyl)pyridin-2-yl]piperazin-1-yl}pyrimidine] | ≤ 1000 |
| COC1CN(c2nc(-c3ccc(F)c(Cl)c3)cc(N3CCN(c4ncccc4C(F)(F)F)CC3)n2)C1 [Example 776, 4-(3-chloro-4-fluorophenyl)-2-(3-methoxyazetidin-1-yl)-6-{4-[3-(trifluoromethyl)pyridin-2-yl]piperazin-1-yl}pyrimidine] | ≤ 1000 |
| CC1CCCN1c1nc(-c2ccc(F)cc2)cc(N2CCN(c3nc(O)ccc3Cl)C[C@H]2C)n1 (stereo partly shown) [Example 970, 5-chloro-6-{4-[6-(4-fluorophenyl)-2-(2-methylpyrrolidin-1-yl)pyrimidin-4-yl]-3-methylpiperazin-1-yl}pyridin-2-ol] | ≤ 1000 |
| Cc1cc(-c2cc(N3CCN(c4ncccc4Cl)C[C@@H]3C)nc(N3CCCC3)n2)ccc1F [Example 902, 4-[(2S)-4-(3-chloropyridin-2-yl)-2-methylpiperazin-1-yl]-6-(4-fluoro-3-methylphenyl)-2-pyrrolidin-1-ylpyrimidine] | ≤ 1000 |
| Cc1cc(N)cnc1N1CCN(c2cc(-c3ccc(F)c(Cl)c3)nc(N3CCCC3C)n2)CC1 (stereo not shown) [Example 814, 6-{4-[6-(3-chloro-4-fluorophenyl)-2-(2-methylpyrrolidin-1-yl)pyrimidin-4-yl]piperazin-1-yl}-5-methylpyridin-3-amine] | ≤ 1000 |
| Cc1cc(-c2cc(N3CCN(c4ncccc4Cl)C[C@H]3C)nc(N3CCC[C@H]3C)n2)ccc1F [Example 924, 4-[(2R)-4-(3-chloropyridin-2-yl)-2-methylpiperazin-1-yl]-6-(4-fluoro-3-methylphenyl)-2-[(2R)-2-methylpyrrolidin-1-yl]pyrimidine] | ≤ 1000 |

same assay, conditions: Table II; determined as described in Example 6; class symbol

| Compound | IC50 [nM] |
| --- | --- |
| CC(C)c1cccc(-c2nc(N3CCOCC3)nc(N3CCN(c4ccccn4)CC3)n2)c1 [Example 235, 2-(3-isopropylphenyl)-4-morpholin-4-yl-6-(4-pyridin-2-ylpiperazin-1-yl)-1,3,5-triazine] | ≤ 1000 |
| CCc1cccc(-c2nc(N3CCOCC3)nc(N3CCN(c4ccccn4)CC3)n2)c1 [Example 237, 2-(3-ethylphenyl)-4-morpholin-4-yl-6-(4-pyridin-2-ylpiperazin-1-yl)-1,3,5-triazine] | ≤ 1000 |

same assay, conditions: determined as described in Example 6 (calcium mobilization, antagonist activity); Table II

| Compound | IC50 [nM] |
| --- | --- |
| C[C@@H]1CN(c2ncccc2Cl)CCN1c1cc(-c2ccc(F)c(F)c2)nc(N2CCCC2)n1 [Example 767, 4-[(2R)-4-(3-chloropyridin-2-yl)-2-methylpiperazin-1-yl]-6-(3,4-difluorophenyl)-2-pyrrolidin-1-ylpyrimidine] | ≤ 1000 |
| Nc1cccnc1N1CCN(c2cc(-c3ccc(F)c(Cl)c3)nc(N3CCOCC3)n2)CC1 [Example 587, 2-{4-[6-(3-chloro-4-fluorophenyl)-2-morpholin-4-ylpyrimidin-4-yl]piperazin-1-yl}pyridin-3-amine] | ≤ 1000 |
| CC1CCCCN1c1nc(-c2ccc(F)c(Cl)c2)cc(N2CCN(c3ncccc3Cl)C[C@H]2C)n1 (stereo partly drawn) [Example 741, 4-(3-chloro-4-fluorophenyl)-6-[(2R)-4-(3-chloropyridin-2-yl)-2-methylpiperazin-1-yl]-2-(2-methytpiperidin-1-yl)pyrimidine] | ≤ 1000 |
| CCN(CC)c1nc(-c2ccc(F)c(Cl)c2)cc(N2CCN(c3ncccc3Cl)CC2)n1 [Example 724, 4-(3-chloro-4-fluorophenyl)-6-[4-(3-chloropyridin-2-yl)piperazin-1-yl]-N,N-diethylpyrimidin-2-amine] | ≤ 1000 |
| COCCN(C)c1nc(-c2ccc(F)c(C)c2)cc(N2CCN(c3ncccc3C(F)(F)F)CC2)n1 [Example 737, 4-(4-fluoro-3-methylphenyl)-N-(2-methoxyethyl)-N-methyl-6-{4-[3-(trifluoromethyl)pyridin-2-yl]piperazin-1-yl}pyrimid in-2-amine] | ≤ 1000 |
| C[C@@H]1CN(c2nc(-c3ccc(F)c(Cl)c3)cc(N3CCN(c4ncccc4C(F)(F)F)CC3)n2)[C@@H](C)CN1C [Example 628, 4-(3-chloro-4-fluorophenyl)-6-{4-[3-(trifluoromethyl)pyridin-2-yl]piperazin-1-yl}-2-[(2S,5R)-2,4,5-trimethylpiperazin-1-yl]pyrimidine] | ≤ 1000 |
| Cc1cc(-c2cc(N3CCN(c4ncccc4C(F)(F)F)CC3)nc(N3CCN(C(=O)OC(C)(C)C)CC3)n2)ccc1F [Example 643, tert-butyl 4-(4-(4-fluoro-3-methylphenyl)-6-{4-[3-(trifluoromethyl)pyridin-2-yl]piperazin-1-yl}pyrimidin-2-yl)piperazine-1-carboxylate] | ≤ 1000 |
| O=C1CN(c2cc(-c3ccc(F)c(Cl)c3)nc(N3CCOCC3)n2)CCN1c1ccccn1 [Example 659, 4-[6-(3-chloro-4-fluorophenyl)-2-morpholin-4-ylpyrimidin-4-yl]-1-pyridin-2-ylpiperazin-2-one] | ≤ 1000 |
| Cc1cccnc1N1CCN(c2cc(-c3ccc(F)c(Cl)c3)nc(N3CCOCC3)n2)CC1=O [Example 661, 4-[6-(3-chloro-4-fluorophenyl)-2-morpholin-4-ylpyrimidin-4-yl]-1-(3-methylpyridin-2-yl)piperazin-2-one] | ≤ 1000 |
| Cc1cc(-c2cc(N3CCN(c4ncccc4C(F)(F)F)C[C@H]3C)nc(N3CCCC3)n2)ccc1F [Example 753, 4-(4-fluoro-3-methylphenyl)-6-{(2R)-2-methyl-4-[3-(trifluoromethyl)pyridin-2-yl]piperazin-1-yl}-2-pyrrolidin-1-ylpyrimidine] | ≤ 1000 |
